Assay results as given in patent publication US9340590B2 (priority 2011, dated 2016).
Where two headings read alike, the source gives them in different places. Positions of bridges follow the written chain, without caps; N, C: chain ends. Non-standard residues stand in square brackets, D forms with d. Residues, ends and D or L forms follow the SMILES beside them. Abu = CC[C@H](N)C(=O)O

What was measured:
Test in all cases: cell-based
[1] = target: hNav1.7 (Homo sapiens, UniProt Q15858); format: cell-based; conditions: IonWorks Quattro, read-out: IWQ Use Nav1.7
[2] = target: hNav1.5 (Homo sapiens, UniProt Q14524); conditions: IonWorks Quattro, read-out: IWQ Use Nav1.5
[3] = target: hNav1.3 (Homo sapiens, UniProt Q9NY46); conditions: IonWorks Quattro, read-out: IWQ Use Nav1.3
[4] = clamped to −110 mV, depolarized to −10 mV, 5 min after compound, n=2

Sequence of hNav1.5 (Q14524 whole entry, looked up): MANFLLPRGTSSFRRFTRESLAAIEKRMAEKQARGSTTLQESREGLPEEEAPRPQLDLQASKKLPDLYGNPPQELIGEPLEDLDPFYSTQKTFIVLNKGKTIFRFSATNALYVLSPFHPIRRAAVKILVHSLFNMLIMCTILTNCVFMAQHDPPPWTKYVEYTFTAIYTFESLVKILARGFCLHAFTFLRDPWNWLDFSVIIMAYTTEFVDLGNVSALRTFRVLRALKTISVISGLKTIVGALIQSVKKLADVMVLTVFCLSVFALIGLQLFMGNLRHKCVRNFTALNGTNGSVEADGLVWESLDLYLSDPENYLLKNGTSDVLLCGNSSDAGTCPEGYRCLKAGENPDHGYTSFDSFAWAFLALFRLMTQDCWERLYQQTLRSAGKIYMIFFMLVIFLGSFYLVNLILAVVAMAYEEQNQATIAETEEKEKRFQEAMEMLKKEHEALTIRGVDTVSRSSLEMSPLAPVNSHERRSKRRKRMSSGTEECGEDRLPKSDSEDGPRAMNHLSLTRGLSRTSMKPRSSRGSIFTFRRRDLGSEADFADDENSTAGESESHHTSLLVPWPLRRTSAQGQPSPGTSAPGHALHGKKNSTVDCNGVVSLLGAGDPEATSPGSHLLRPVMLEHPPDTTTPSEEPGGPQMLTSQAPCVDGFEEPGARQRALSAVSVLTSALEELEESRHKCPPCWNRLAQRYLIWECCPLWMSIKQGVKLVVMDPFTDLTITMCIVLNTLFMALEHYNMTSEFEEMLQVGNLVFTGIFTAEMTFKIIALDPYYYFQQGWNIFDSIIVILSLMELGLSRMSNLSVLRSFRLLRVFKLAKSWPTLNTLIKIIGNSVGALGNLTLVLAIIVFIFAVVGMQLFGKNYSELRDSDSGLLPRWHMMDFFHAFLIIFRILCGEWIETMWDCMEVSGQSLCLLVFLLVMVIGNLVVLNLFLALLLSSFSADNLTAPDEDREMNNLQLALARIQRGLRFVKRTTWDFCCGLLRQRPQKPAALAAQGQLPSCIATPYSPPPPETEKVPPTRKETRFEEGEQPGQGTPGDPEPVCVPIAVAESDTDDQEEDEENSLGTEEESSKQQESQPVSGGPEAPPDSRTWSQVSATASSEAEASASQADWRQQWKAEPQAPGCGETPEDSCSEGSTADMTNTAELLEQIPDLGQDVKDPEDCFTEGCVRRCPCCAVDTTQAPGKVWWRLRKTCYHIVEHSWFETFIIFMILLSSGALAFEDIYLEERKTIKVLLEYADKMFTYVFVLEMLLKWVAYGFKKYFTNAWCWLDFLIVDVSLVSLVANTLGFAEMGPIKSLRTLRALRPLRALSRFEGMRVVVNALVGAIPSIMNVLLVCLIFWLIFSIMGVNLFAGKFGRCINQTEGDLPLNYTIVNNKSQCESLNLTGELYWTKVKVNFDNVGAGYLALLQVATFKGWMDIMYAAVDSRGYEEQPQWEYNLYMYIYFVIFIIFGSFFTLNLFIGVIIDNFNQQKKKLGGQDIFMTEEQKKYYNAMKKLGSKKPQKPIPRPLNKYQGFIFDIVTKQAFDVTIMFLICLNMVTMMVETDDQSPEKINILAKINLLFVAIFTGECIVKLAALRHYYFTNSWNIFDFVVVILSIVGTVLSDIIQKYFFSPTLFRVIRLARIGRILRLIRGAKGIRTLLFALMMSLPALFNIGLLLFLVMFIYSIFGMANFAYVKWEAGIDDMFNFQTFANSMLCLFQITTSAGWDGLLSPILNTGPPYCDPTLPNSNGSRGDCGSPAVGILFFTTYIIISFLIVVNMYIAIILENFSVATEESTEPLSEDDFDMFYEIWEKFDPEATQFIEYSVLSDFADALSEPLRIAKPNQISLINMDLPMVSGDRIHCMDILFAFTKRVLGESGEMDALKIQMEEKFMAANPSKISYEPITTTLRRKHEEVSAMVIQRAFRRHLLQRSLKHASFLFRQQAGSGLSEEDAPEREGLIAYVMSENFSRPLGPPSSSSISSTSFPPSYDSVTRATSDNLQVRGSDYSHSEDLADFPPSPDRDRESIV
Sequence of hNav1.3 (Q9NY46 whole entry, looked up): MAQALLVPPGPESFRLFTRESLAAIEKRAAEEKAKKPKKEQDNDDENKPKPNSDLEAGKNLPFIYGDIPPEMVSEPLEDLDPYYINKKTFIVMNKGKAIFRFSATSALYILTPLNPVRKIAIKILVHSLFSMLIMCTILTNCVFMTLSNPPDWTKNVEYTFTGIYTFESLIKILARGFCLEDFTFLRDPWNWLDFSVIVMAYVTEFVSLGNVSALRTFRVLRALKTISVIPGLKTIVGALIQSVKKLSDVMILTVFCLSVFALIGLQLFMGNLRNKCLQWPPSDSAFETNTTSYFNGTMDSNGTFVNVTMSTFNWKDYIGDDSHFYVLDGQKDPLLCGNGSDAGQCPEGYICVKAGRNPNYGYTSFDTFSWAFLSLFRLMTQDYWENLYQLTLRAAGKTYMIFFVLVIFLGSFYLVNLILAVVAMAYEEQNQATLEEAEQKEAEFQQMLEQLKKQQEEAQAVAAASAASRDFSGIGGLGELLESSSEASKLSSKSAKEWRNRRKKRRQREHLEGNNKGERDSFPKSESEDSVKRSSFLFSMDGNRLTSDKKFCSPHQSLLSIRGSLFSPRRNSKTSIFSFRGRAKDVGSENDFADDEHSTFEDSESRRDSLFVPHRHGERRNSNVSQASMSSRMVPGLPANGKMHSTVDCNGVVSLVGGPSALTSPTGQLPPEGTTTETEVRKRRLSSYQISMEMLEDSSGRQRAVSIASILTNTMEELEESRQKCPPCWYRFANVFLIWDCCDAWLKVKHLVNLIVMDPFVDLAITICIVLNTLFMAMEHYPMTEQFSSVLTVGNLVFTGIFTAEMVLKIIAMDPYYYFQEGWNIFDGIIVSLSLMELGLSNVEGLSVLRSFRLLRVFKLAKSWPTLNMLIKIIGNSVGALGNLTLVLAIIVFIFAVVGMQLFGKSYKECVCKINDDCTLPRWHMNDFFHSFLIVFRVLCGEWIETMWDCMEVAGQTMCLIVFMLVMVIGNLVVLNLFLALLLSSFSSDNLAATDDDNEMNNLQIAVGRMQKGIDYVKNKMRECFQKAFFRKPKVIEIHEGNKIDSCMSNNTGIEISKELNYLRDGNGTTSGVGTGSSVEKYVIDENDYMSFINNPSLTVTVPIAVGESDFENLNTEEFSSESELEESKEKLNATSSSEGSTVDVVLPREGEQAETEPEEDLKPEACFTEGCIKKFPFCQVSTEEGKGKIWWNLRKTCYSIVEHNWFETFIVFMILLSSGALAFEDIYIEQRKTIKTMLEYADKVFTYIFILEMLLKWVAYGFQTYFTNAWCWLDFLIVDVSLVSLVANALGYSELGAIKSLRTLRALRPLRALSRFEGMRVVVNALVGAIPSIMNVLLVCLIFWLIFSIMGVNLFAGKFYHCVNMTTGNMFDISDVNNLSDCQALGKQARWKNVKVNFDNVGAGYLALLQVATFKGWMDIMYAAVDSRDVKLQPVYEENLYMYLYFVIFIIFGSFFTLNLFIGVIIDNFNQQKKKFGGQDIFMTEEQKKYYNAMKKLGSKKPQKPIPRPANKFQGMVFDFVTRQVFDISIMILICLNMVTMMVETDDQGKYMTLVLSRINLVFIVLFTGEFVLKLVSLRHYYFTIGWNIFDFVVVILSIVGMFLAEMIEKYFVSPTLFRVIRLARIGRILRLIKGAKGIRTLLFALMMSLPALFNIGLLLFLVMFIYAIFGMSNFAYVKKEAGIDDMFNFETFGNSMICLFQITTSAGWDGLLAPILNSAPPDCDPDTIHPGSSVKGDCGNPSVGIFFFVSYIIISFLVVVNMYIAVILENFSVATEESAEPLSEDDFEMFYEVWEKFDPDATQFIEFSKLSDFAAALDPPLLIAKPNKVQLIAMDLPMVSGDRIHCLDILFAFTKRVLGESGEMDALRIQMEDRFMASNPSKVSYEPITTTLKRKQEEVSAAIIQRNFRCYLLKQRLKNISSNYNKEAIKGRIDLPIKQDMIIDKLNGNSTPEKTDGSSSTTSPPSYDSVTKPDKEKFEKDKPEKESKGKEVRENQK

| SMILES | IC50 ([1]; use-dependent block, hNav1.7) [nM] | IC50 ([2]; use-dependent block, hNav1.5) [nM] | IC50 ([3]; use-dependent block, hNav1.3) [nM] | IC50 [1, 4] [nM] | IC50 [2, 4] [nM] | IC50 [3, 4] [nM] |
| --- | --- | --- | --- | --- | --- | --- |
| CC[C@H](C)[C@@H]1NC(=O)[C@@H]2CSSC[C@@H]3NC(=O)[C@H](C(C)C)NC(=O)[C@H](CC(C)C)NC(=O)[C@H](CC(N)=O)NC(=O)[C@@H]4CCCN4C(=O)[C@H](CCCNC(=N)N)NC(=O)[C@H](CSSC[C@H](NC(=O)[C@@H](N)CC(=O)O)C(=O)N[C@@H](CC(C)C)C(=O)NCC(=O)N[C@@H](C)C(=O)N[C@@H](Cc4ccccc4)C(=O)N[C@@H](CCCNC(=N)N)C(=O)N[C@@H](CCCCN)C(=O)N2)NC(=O)[C@H](CSSC[C@@H](C(=O)N[C@@H](CCCCN)C(=O)N[C@@H](Cc2ccc(O)cc2)C(=O)N[C@H](C(=O)N[C@@H](Cc2ccccc2)C(=O)O)C(C)C)NC(=O)[C@H](Cc2c[nH]c4ccccc24)NC(=O)[C@H](CCCNC(=N)N)NC(=O)[C@H](Cc2c[nH]cn2)NC(=O)[C@H]([C@@H](C)O)NC(=O)[C@H](CCCNC(=N)N)NC(=O)[C@H](CO)NC3=O)NC(=O)[C@H](CCCCN)NC(=O)[C@H](CC(=O)O)NC(=O)[C@H](Cc2c[nH]c3ccccc23)NC(=O)[C@H](CC(=O)O)NC(=O)[C@@H]2CCCN2C1=O [compound 852] | > 5000 | > 5000 | > 5000 |  |  |  |
| CC[C@H](C)[C@@H]1NC(=O)[C@@H]2CSSC[C@@H]3NC(=O)[C@H](C(C)C)NC(=O)[C@H](CC(C)C)NC(=O)[C@H](CC(N)=O)NC(=O)[C@@H]4CCCN4C(=O)[C@H](CCCNC(=N)N)NC(=O)[C@H](CSSC[C@H](NC(=O)[C@@H](N)CC(=O)O)C(=O)N[C@@H](CC(C)C)C(=O)NCC(=O)N[C@@H](CCSC)C(=O)N[C@@H](CCSC)C(=O)N[C@@H](CCCNC(=N)N)C(=O)N[C@@H](CCCCN)C(=O)N2)NC(=O)[C@H](CSSC[C@@H](C(=O)N[C@@H](CCCCN)C(=O)N[C@@H](Cc2ccc(O)cc2)C(=O)N[C@H](C(=O)N[C@@H](Cc2ccccc2)C(N)=O)C(C)C)NC(=O)[C@H](Cc2c[nH]c4ccccc24)NC(=O)[C@H](CCCCN)NC(=O)[C@H](Cc2cnc[nH]2)NC(=O)[C@H]([C@@H](C)O)NC(=O)[C@H](CCCNC(=N)N)NC(=O)[C@H](CO)NC3=O)NC(=O)[C@H](CCCCN)NC(=O)[C@H](CC(=O)O)NC(=O)[C@H](CC(N)=O)NC(=O)[C@H](CC(=O)O)NC(=O)[C@@H]2CCCN2C1=O [SEQ ID NO: 268] (H-DCLGMMRKCIPDNDKCCRPNLVCSRTHKWCKYVF-NH2; disulfide 2-17, 9-23, 16-30) |  |  |  | 100 | 12800 | 240 |
| CC[C@@H]1NC(=O)[C@@H]2CSSC[C@@H](C(=O)N[C@@H](CCCCN)C(=O)N[C@@H](Cc3ccc(O)cc3)C(=O)N[C@H](C(=O)N[C@@H](Cc3ccccc3)C(N)=O)C(C)C)NC(=O)[C@H](Cc3c[nH]c4ccccc34)NC(=O)[C@H](CCCCN)NC(=O)[C@H](Cc3c[nH]cn3)NC(=O)[C@H]([C@@H](C)O)NC(=O)[C@H](CCCNC(=N)N)NC(=O)[C@H](CO)NC(=O)[C@H](CSSC[C@H](NC(=O)[C@H](CCCCN)NC(=O)[C@H](CCCNC(=N)N)NC(=O)[C@H](CCSC)NC(=O)[C@H](Cc3ccccc3)NC(=O)CNC(=O)[C@H](CC(C)C)NC(=O)[C@H](CC)NC(=O)[C@@H](N)CC(=O)O)C(=O)N[C@@H]([C@@H](C)CC)C(=O)N3CCC[C@H]3C(=O)N[C@@H](CC(=O)O)C(=O)N[C@@H](CC(N)=O)C(=O)N[C@@H](CC(=O)O)C(=O)N[C@@H](CCCCN)C(=O)N2)NC(=O)[C@H](C(C)C)NC(=O)[C@H](CC(C)C)NC(=O)[C@H](CC(N)=O)NC(=O)[C@@H]2CCCN2C(=O)[C@H](CCCNC(=N)N)NC1=O [SEQ ID NO: 125, [2-Abu-2,17]GpTx-1] (H-D[Abu]LGFMRKCIPDNDKC[Abu]RPNLVCSRTHKWCKYVF-NH2; disulfide 9-23, 16-30) | 300 | 9510 | 240 |  |  |  |
